The values that follow are results of earlier work, collected in patent US20090214599A1, “PROTON PUMP INHIBITOR FORMULATIONS, AND METHODS OF PREPARING AND USING SUCH FORMULATIONS” (AGI THERAPEUTICS PLC, priority 2008, published 2009).

For data set [1] the following is noted: healthy subjects.
The conditions of data set [2]: pH <4.

As to `COc1ccc2[nH]c([S+]([O-])Cc3ncc(C)c(OC)c3C)nc2c1` (stereo not drawn) [omeprazole], the Protein binding entry was “approximately 95%”. For the same compound, the total body clearance in data set [1] is 500 to 600 mL/min. In data set [2], the “half-life of degradation in acid conditions” value was roughly 10 min.
